Where two headings read alike, the source gives them in different places.
How the values were obtained:
[1] = system: fleas; settings: dogs; concentrated solution for point application (spot on); cited from earlier work
[2] = system: fleas (Ctenocephalides felis); assay: Eradication of fleas in enclosures of infested dogs treated monthly with a spot-on solution; format: in vivo; settings: group C, 10% fipronil cutaneous point solution on days 0, 28, 56, 84, weekly egg counts, body and comb counts over weeks 1-12, regularly reinfested
From the text: The test used dogs in good health.
The dogs were divided by groups of three dogs into enclosures of area approximately 4.80 m long (16 feet) and 1.5 m wide (5 feet) each containing a shelter and soil especially favourable to the development of the immature stages of the fleas (Ctenocephalides felis).
A total of 18 dogs, that is to say six enclosures, was allocated to the control group A.
A group C of six dogs (2 enclosures) preinfested in this way received the treatment according to the invention by application of a cutaneous point solution having a concentration of 10% of fipronil.
The doses of concentrated composition for local cutaneous application of fipronil were as follows:
The animals of group C were treated on day 0 and then every 28 days, that is to say the days 28, 56 and 84.

[3] = system: fleas; settings: cats; concentrated solution for point application (spot on); cited from earlier work
[4] = system: fleas; assay: Similar flea eradication test on cats; format: in vivo; settings: same results as dogs

## N#Cc1nn(-c2c(Cl)cc(C(F)(F)F)cc2Cl)c(N)c1[S+]([O-])C(F)(F)F (stereo not shown) [fipronil, 1-[2,6-Cl2-4-CF3-phenyl]-3-CN-4-[SO—CF3]-5-NH2-pyrazole]
[1]
  period of anti-flea efficacy: 2 to 3 months
[2]
  rate of control of the infestation: 100%
[3]
  period of anti-flea efficacy: six
[4]
  reinfestation: total absence of reinfestation

— patent US6716442B2, “Process and means for the eradication of fleas in the habitats of small mammals” (Merial, priority 1997, dated 2004)
